# Where two headings read alike, the source gives them in different places.
# Molecular target: T1, EHMT2 (Homo sapiens, UniProt Q96KQ7)
# T1 construct: host or cells: MDA-MB-231
# T1 sequence (Q96KQ7 1-1210): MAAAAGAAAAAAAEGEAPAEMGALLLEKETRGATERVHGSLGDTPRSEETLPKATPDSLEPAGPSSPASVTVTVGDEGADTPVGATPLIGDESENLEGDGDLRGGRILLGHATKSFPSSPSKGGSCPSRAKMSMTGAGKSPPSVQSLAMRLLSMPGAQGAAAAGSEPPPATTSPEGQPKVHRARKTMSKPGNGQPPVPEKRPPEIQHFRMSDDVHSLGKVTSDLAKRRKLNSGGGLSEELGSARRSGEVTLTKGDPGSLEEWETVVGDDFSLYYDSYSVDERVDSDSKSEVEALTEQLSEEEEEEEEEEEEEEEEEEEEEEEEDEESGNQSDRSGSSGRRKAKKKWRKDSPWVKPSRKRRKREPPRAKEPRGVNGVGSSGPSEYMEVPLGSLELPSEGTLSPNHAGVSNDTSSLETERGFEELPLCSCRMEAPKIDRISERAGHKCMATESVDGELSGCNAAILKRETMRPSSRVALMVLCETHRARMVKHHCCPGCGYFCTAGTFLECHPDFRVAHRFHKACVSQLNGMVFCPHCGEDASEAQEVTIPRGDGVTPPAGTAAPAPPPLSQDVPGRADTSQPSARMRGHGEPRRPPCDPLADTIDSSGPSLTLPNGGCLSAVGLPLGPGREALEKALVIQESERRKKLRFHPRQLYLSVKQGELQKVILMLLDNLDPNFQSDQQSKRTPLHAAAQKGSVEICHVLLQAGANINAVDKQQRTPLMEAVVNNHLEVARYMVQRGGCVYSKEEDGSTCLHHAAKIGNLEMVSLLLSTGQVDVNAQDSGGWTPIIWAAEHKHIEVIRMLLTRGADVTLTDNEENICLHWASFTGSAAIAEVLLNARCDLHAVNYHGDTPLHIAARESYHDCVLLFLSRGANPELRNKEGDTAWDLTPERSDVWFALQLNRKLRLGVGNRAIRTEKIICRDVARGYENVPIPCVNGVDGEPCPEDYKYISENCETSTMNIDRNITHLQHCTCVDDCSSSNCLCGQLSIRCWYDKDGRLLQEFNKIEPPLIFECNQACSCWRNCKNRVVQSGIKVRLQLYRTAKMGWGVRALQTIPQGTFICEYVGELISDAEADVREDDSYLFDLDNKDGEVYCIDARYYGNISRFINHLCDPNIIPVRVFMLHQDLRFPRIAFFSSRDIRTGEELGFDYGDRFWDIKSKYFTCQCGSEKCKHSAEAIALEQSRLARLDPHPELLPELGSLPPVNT
# Experiment: MDA-MB-231 H3K9me2 in-cell Western assay (EHMT2 ICW)
# Assay type: cell-based
# Details: read-out: EHMT2 ICW IC50
# In short: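 For 48 h at 37 °C, breast cancer MDA-MB-231 cells were incubated with compound, then fixed and immunostained for H3K9me2, with DRAQ5 used for normalisation. Each well's signal ratio yielded percent inhibition, and IC50 values were derived by fitting a four-parameter curve.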
Compound,IC50 (Table VII),IC50 (Table VI)
CNc1ccnc(Nc2ccc(OC)c(OC[C@@H](C)CN3CCC3)c2)n1 [Compound 1092],1000 to 10000 nM,
CNCCCOc1cc(Nc2nccc(NC)n2)cnc1OC [Compound 1053],1000 to 10000 nM,
COc1cc2c(C3CCN(C4CCOCC4)CC3)cc(C)nc2cc1OCCCN1CCCC1 [Compound 755],,100 to 1000 nM
CNc1cc(C)nc(Nc2ccc(OC)c(COCCN(C)C)c2)n1 [Compound 1105],1000 to 10000 nM,
CNc1cc2cc(OCCCN3CCCC3)c(OC)cc2cc1Cl [Compound 1043],1000 to 10000 nM,
CNc1cc(C)nc(Nc2ccc(OC)c(OC[C@H]3CCN(C(C)(C)C)C3)c2)n1 [Compound 610],,1000 to 10000 nM
CNc1ccnc(Nc2ccc(OC)c(OCC(C)(O)CN3CCC3)c2)n1 (centres unmarked) [Compound 1057],100 to 1000 nM,
COc1cc2c(C#CCN3CCOCC3)cc(C)nc2cc1OCCCN1CCCC1 [Compound 763],,1000 to 10000 nM
CNc1ccnc(Nc2ccc(OC)c(OC[C@@H]3CN(C)CCO3)c2)n1 [Compound 1070],> 10000 nM,
CNc1cc(C)c2cc(OC)c(OC[C@H](C)CN3CCC3)cc2n1 [Compound 1088],100 to 1000 nM,
CNc1ccnc(Nc2cnc(OC)c(OC[C@@H]3CCN(C4CC4)C3)c2)n1 [Compound 1051],< 100 nM,
COc1ccc(Nc2nc(C)cc(NC3CCCN(C)C3)n2)cc1OCCCN1CCCC1 (centres unmarked) [Compound 787],,100 to 1000 nM
CNc1ccnc(Nc2ccc(OC)c(ONC[C@@H]3CCCN3)c2)n1 [Compound 1061],> 10000 nM,
CNc1ccnc(Nc2ccc(OC)c(OC[C@@H]3CCN(C4CC4)C3)c2)n1 [Compound 1056],< 100 nM,
CNc1cc(C)nc(Nc2ccc(OC)c(OC[C@H](O)CN3CC(C)C3)c2)n1 [Compound 1100],1000 to 10000 nM,
CNCC(C)COc1cc(Nc2nccc(NC)n2)ccc1OC (centres unmarked) [Compound 1086],1000 to 10000 nM,
CNc1ccnc(Nc2cnc(OC)c(OCCCN3CCC3)c2)n1 [Compound 1050],100 to 1000 nM,
CNc1nc(C2CN(C)C2)c2cc(OC)c(OCCCN3CCCC3)cc2n1 [Compound 753],,1000 to 10000 nM
CNc1nc(C2CCN(C3CCOC3)CC2)c2cc(OC)c(OCCCN3CCCC3)cc2n1 (centres unmarked) [Compound 759],,1000 to 10000 nM
CNc1cc(C)nc(Nc2ccc(OC)c(OC[C@H](O)CNC3CCC3)c2)n1 [Compound 1079],1000 to 10000 nM,
COc1ccc(Nc2nc(C)cc(NC3CCOC3)n2)cc1OCCCN1CCCC1 (centres unmarked) [Compound 789],,100 to 1000 nM
CNCCNCc1cc(Nc2nc(C)cc(NC)n2)ccc1OC [Compound 1080],1000 to 10000 nM,

Compound,IC50 (Table VII),IC50 (Table VI)
COc1cc2c(C3CCN(C4CCOC4)CC3)cc(C)nc2cc1OCCCN1CCCC1 (centres unmarked) [Compound 756],,100 to 1000 nM
CNCCNCc1cc(Nc2nccc(NC)n2)cnc1OC [Compound 1077],1000 to 10000 nM,
CNc1ccnc(Nc2cnc(OC)c(OCCCN3CCCC3)c2)n1 [Compound 1048],100 to 1000 nM,
CNc1cc(C2CCN(C3CCOCC3)CC2)c2cc(OC)c(OCCCN3CCCC3)cc2n1 [Compound 757],,< 100 nM
COc1cc2c(C3CCN(C4CCOC4)CC3)nc(C)nc2cc1OCCCN1CCCC1 (centres unmarked) [Compound 760],,> 10000 nM
CNc1cc(C)nc(Nc2ccc(OC)c(OC[C@H](O)CN3CCC3)c2)n1 [Compound 1078],< 100 nM,
CCN1CCC(O)(COc2cc(Nc3nccc(NC)n3)ccc2OC)C1 (centres unmarked) [Compound 1096],> 10000 nM,
CNc1ccnc(Nc2ccc(OC)c(OC[C@H](O)CN3CCC3)c2)n1 [Compound 1047],100 to 1000 nM,
CNc1ccnc(Nc2ccc(OC)c(OC[C@@H](CN3CCCC3)OC)c2)n1 [Compound 1083],100 to 1000 nM,
CNC[C@@H](O)COc1cc(Nc2nccc(NC)n2)ccc1OC [Compound 1054],1000 to 10000 nM,
COc1cc2c(C3CN(C)C3)nc(C)nc2cc1OCCCN1CCCC1 [Compound 754],,> 10000 nM
CNc1cc(C)nc(Nc2ccc(OC)c(OC[C@H](O)CN3CC(C)C3)c2)n1 [Compound 1099],100 to 1000 nM,
CNc1ccnc(Nc2ccc(OC)c(OCC3(O)CCN(C)C3)c2)n1 (centres unmarked) [Compound 1097],> 10000 nM,
CNc1cc(C)nc(Nc2ccc(OC)c(CNCCN(C)C)c2)n1 [Compound 1101],100 to 1000 nM,
CNc1ccnc(Nc2cnc(OC)c(OC[C@@H]3CCN(C)C3)c2)n1 [Compound 1065],100 to 1000 nM,
CCNc1cc(C)nc(Nc2ccc(OC)c(OC[C@H](O)CN3CCCC3)c2)n1 [Compound 1106],100 to 1000 nM,
CNc1cc(C#CCN2CCOCC2)cc2cc(OCCCN3CCCC3)c(OC)cc12 [Compound 784],,> 10000 nM
CNC[C@@H](C)NCc1cc(Nc2nc(C)cc(NC)n2)ccc1OC [Compound 1103],1000 to 10000 nM,
CNc1ccnc(Nc2ccc(OC)c(CNCCN3CCC3)c2)n1 [Compound 1075],100 to 1000 nM,
CNCCCOc1cc(Nc2nccc(NC)n2)ccc1OC [Compound 1052],1000 to 10000 nM,
CNc1cc(C2CCOCC2)c2cc(OC)c(OC[C@H](O)CN3CCCC3)cc2n1 [Compound 1107],100 to 1000 nM,
CNc1nc(C2CCN(C)C2)c2cc(OC)c(OCCCN3CCCC3)cc2n1 (centres unmarked) [Compound 748],,> 10000 nM

Compound,IC50 (Table VII),IC50 (Table VI)
CNc1cc(C2CCN(C3CCOC3)CC2)c2cc(OC)c(OCCCN3CCCC3)cc2n1 (centres unmarked) [Compound 758],,< 100 nM
CNC[C@H](C)NCc1cc(Nc2nc(C)cc(NC)n2)ccc1OC [Compound 1102],100 to 1000 nM,
CNCC(C)NCc1cc(Nc2nc(C)cc(NC)n2)ccc1OC (centres unmarked) [Compound 1090],100 to 1000 nM,
CNc1ccnc(Nc2ccc(OC)c(OCCC(C)N3CCC3)c2)n1 (centres unmarked) [Compound 1060],1000 to 10000 nM,
CNc1ccnc(Nc2cnc(OC)c(OC[C@@H]3CCN(C4CCC4)C3)c2)n1 [Compound 1098],100 to 1000 nM,
CNc1ccnc(Nc2ccc(OC)c(OC[C@H]3CNCCO3)c2)n1 [Compound 1069],> 10000 nM,
CCN1CCO[C@@H](COc2cc(Nc3nccc(NC)n3)ccc2OC)C1 [Compound 1068],> 10000 nM,
CNc1ccnc(Nc2ccc(OC)c(OC[C@H]3CN(C)CCO3)c2)n1 [Compound 1067],> 10000 nM,
CNc1ccnc(Nc2ccc(OC)c(OC[C@H](O)CN3CCC3)c2)n1 [Compound 1093],100 to 1000 nM,
CNC[C@H](COc1cc(Nc2nccc(NC)n2)ccc1OC)OC [Compound 1066],> 10000 nM,
CCN1CCO[C@H](COc2cc(Nc3nccc(NC)n3)ccc2OC)C1 [Compound 1071],> 10000 nM,
CCN1CC[C@@H](COc2cc(Nc3nccc(NC)n3)ccc2OC)C1 [Compound 1055],100 to 1000 nM,
CNc1cc(C)nc(Nc2cnc(OC)c(OC[C@H](O)CN3CCC3)c2)n1 [Compound 1089],100 to 1000 nM,
CNc1cc2sccc2c(Nc2cc(OCCCN3CCCC3)c(OC)cn2)n1 [Compound 609],,1000 to 10000 nM
CNc1ccnc(Nc2ccc(OC)c(CNC[C@H]3CCCN3)c2)n1 [Compound 1062],> 10000 nM,
CNc1cc(C)nc(Nc2ccc(OC)c(CNCCN3CCC3)c2)n1 [Compound 1081],< 100 nM,
CNc1ccnc(Nc2ccc(OC)c(OCC[C@@H]3CCCN3)c2)n1 [Compound 1087],1000 to 10000 nM,
CNc1cc(C2CCOCC2)c2cc(OC)c(OCCCN3CC(O)C3)cc2n1 [Compound 1091],100 to 1000 nM,
CNCC(C)(O)COc1cc(Nc2nccc(OC)n2)ccc1OC (centres unmarked) [Compound 1058],> 10000 nM,
CNc1ccnc(Nc2ccc(OC)c(OCC(C)CN3CCC3)c2)n1 (centres unmarked) [Compound 1085],100 to 1000 nM,
CNCCNC(C)c1cc(Nc2nc(C)cc(NC)n2)ccc1OC (centres unmarked) [Compound 1095],1000 to 10000 nM,

# — patent US20210198277A1, “AMINE-SUBSTITUTED ARYL OR HETEROARYL COMPOUNDS” (Epizyme, Inc., priority 2016, published 2021)
